Laboratory results published in PubChem BioAssay (NCI).
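Following 48 hours of exposure in 96-well plates, responses at five concentrations were used to interpolate endpoints linearly. GI50 marks 50% less growth. The concentration for full growth arrest is given as TGI.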

Experiments:
Assay in all cases: NCI-60 cell line screen, 48 h
[1] = system: OVCAR-4 ovarian
[2] = system: UACC-257 melanoma
[3] = system: LOX IMVI melanoma
[4] = system: HT29 colon
[5] = system: NCI-H226 lung
[6] = system: MOLT-4 leukemia
[7] = system: SK-OV-3 ovarian
[8] = system: OVCAR-8 ovarian
[9] = system: NCI-H23 lung
[10] = system: TK-10 renal
[11] = system: SF-295 CNS
[12] = system: CAKI-1 renal
[13] = system: KM12 colon
[14] = system: OVCAR-5 ovarian
[15] = system: HCC-2998 colon
[16] = system: UACC-62 melanoma
[17] = system: DU-145 prostate
[18] = system: ACHN renal
[19] = system: M14 melanoma
[20] = system: A549 NSCLC
[21] = system: SR leukemia
[22] = system: COLO 205 colon
[23] = system: SK-MEL-5 melanoma
[24] = system: SN12C renal
[25] = system: HOP-92 NSCLC
[26] = system: UO-31 renal
[27] = system: EKVX NSCLC
[28] = system: NCI/ADR-RES ovarian
[29] = system: HS 578T breast
[30] = system: CCRF-CEM leukemia
[31] = system: SF-268 CNS
[32] = system: HCT-116 colon
[33] = system: SNB-19 CNS
[34] = system: SK-MEL-28 melanoma
[35] = system: A498 renal
[36] = system: IGROV1 ovarian
[37] = system: U251 CNS
[38] = system: 786-0 renal
[39] = system: HCT-15 colon
[40] = system: SNB-75 CNS
[41] = system: MDA-MB-435
[42] = system: NCI-H460 lung
[43] = system: RXF 393 renal
[44] = system: MALME-3M melanoma
[45] = system: HOP-62 NSCLC
[46] = system: PC-3 prostate
[47] = system: OVCAR-3 ovarian
[48] = system: RPMI-8226 leukemia
[49] = system: T-47D breast
[50] = system: MDA-MB-231 breast
[51] = system: K-562 leukemia
[52] = system: SK-MEL-2 melanoma
[53] = system: HL-60(TB) leukemia
[54] = system: MCF7 breast
[55] = system: SF-539 CNS
[56] = system: SW-620 colon
[57] = system: BT-549 breast
[58] = system: NCI-H522 lung

`COc1cc(NCCCN=C(N)NC(N)=NC(C)C)c2ncccc2c1` showed a GI50 [1] of 0.0588 µM, a TGI [1] of 1.64 µM and a GI50 [2] of 4.31 µM. For the same compound, the TGI [2] was 16.5 µM, the GI50 [3] was 11.8 µM and the TGI [3] was 42.9 µM. The GI50 [4] was 6.38 µM, the TGI [4] was over 100 µM and the GI50 [5] was 42.3 µM. It also gave a TGI [5] of over 100 µM, a GI50 [6] of 6.62 µM and a TGI [6] of over 47.5 µM. The GI50 [7] was over 74.8 µM, the TGI [7] was over 100 µM and the GI50 [8] was 23.5 µM. It also gave a TGI [8] of over 87.1 µM, a GI50 [9] of 3.02 µM and a TGI [9] of 29.6 µM. The GI50 [10] was 15.7 µM, the TGI [10] was 46.1 µM and the GI50 [11] was 79.3 µM. For the same compound, the TGI [11] was over 100 µM, the GI50 [12] was over 100 µM and the TGI [12] was over 100 µM. The GI50 [13] was 0.633 µM, the TGI [13] was 11.2 µM and the GI50 [14] was 12.8 µM. It also gave a TGI [14] of 43.3 µM, a GI50 [15] of 3.29 µM and a TGI [15] of 22.1 µM. For the same compound, the GI50 [16] was 12.2 µM, the TGI [16] was 33 µM and the GI50 [17] was 33.9 µM. The TGI [17] was over 100 µM, the GI50 [18] was over 82.8 µM and the TGI [18] was over 100 µM. The GI50 [19] was 27.4 µM, the TGI [19] was over 83.1 µM and the GI50 [20] was 56.7 µM. The TGI [20] was over 100 µM, the GI50 [21] was 7.71 µM and the TGI [21] was 45.8 µM. For the same compound, the GI50 [22] was 0.195 µM, the TGI [22] was 1.92 µM and the GI50 [23] was 2.17 µM. It also gave a TGI [23] of 6.38 µM, a GI50 [24] of 3.51 µM and a TGI [24] of 27.2 µM. The GI50 [25] was 2.54 µM, the TGI [25] was 26.5 µM and the GI50 [26] was over 97.1 µM. For the same compound, the TGI [26] was over 100 µM, the GI50 [27] was 4.73 µM and the TGI [27] was 22 µM. The GI50 [28] was over 100 µM, the TGI [28] was over 100 µM and the GI50 [29] was 14 µM. It also gave a TGI [29] of 46.1 µM, a GI50 [30] of 7.61 µM and a TGI [30] of 45.7 µM. For the same compound, the GI50 [31] was 4.98 µM, the TGI [31] was over 57.5 µM and the GI50 [32] was 3.31 µM. It also gave a TGI [32] of 30.3 µM, a GI50 [33] of 11 µM and a TGI [33] of 64.4 µM. For the same compound, the GI50 [34] was 13.6 µM, the TGI [34] was 35.2 µM and the GI50 [35] was 36.6 µM. The TGI [35] was over 88.8 µM, the GI50 [36] was 0.467 µM and the TGI [36] was 3.77 µM. The GI50 [37] was 6.41 µM, the TGI [37] was over 45.1 µM and the GI50 [38] was 50.7 µM. For the same compound, the TGI [38] was over 100 µM, the GI50 [39] was over 100 µM and the TGI [39] was over 100 µM. It also gave a GI50 [40] of 4.81 µM, a TGI [40] of 28.5 µM and a GI50 [41] of 17.7 µM. The TGI [41] was 35 µM, the GI50 [42] was 14.6 µM and the TGI [42] was over 79.5 µM. The GI50 [43] was 22.8 µM, the TGI [43] was over 91.2 µM and the GI50 [44] was 0.813 µM. For the same compound, the TGI [44] was 4.1 µM, the GI50 [45] was 35.2 µM and the TGI [45] was over 84.8 µM. It also gave a GI50 [46] of 6 µM, a TGI [46] of 35.5 µM and a GI50 [47] of 0.112 µM. The TGI [47] was 0.876 µM, the GI50 [48] was 6.55 µM and the TGI [48] was 26.2 µM. For the same compound, the GI50 [49] was 1.58 µM, the GI50 [50] was 1.96 µM and the TGI [50] was 14.3 µM. It also gave a GI50 [51] of 7.56 µM, a TGI [51] of over 95.1 µM and a GI50 [52] of 2.68 µM. It also gave a TGI [52] of 10.1 µM, a GI50 [53] of 10.8 µM and a TGI [53] of 31.8 µM. The TGI [54] was 0.0718 µM, the GI50 [55] was 5.08 µM and the TGI [55] was 30 µM. For the same compound, the GI50 [56] was 11.6 µM, the TGI [56] was over 63.5 µM and the GI50 [57] was 10 µM. For the same compound, the TGI [57] was 22.8 µM, the GI50 [58] was 2.72 µM and the TGI [58] was 9.61 µM.

Work on `CC(=O)c1c(C)[nH]c(-c2nc3ccc(N4CCN(C)CC4)cc3[nH]2)c1-c1ccc(N(C)C)cc1` yielded a GI50 [1] of 1.17 µM, a TGI [1] of 33.6 µM and a GI50 [2] of 1.03 µM. The TGI [2] was 11 µM, the GI50 [3] was 0.359 µM and the TGI [3] was 1.85 µM. For the same compound, the GI50 [4] was 0.299 µM, the TGI [4] was 19.4 µM and the GI50 [5] was 1.95 µM. The TGI [5] was 32.9 µM, the GI50 [6] was 1.5 µM and the TGI [6] was 45.2 µM. The GI50 [7] was 0.465 µM, the TGI [7] was 3.65 µM and the GI50 [8] was 2.33 µM. The TGI [8] was over 84.1 µM, the GI50 [9] was 2 µM and the TGI [9] was 21.4 µM. The GI50 [10] was 0.294 µM, the TGI [10] was 15.8 µM and the GI50 [11] was 1.55 µM. It also gave a TGI [11] of 14.8 µM, a GI50 [12] of 0.309 µM and a TGI [12] of 13.9 µM. The GI50 [13] was 1.34 µM, the TGI [13] was 20.2 µM and the GI50 [14] was 1.8 µM. The TGI [14] was over 65 µM, the GI50 [15] was 1.06 µM and the TGI [15] was 8.38 µM. It also gave a GI50 [16] of 0.175 µM, a TGI [16] of 13 µM and a GI50 [17] of 5.37 µM. For the same compound, the TGI [17] was over 83.6 µM, the GI50 [18] was 0.773 µM and the TGI [18] was 12.6 µM. It also gave a GI50 [19] of 0.537 µM, a TGI [19] of 13.4 µM and a GI50 [20] of 1.04 µM. For the same compound, the TGI [20] was over 48.4 µM, the GI50 [21] was 0.923 µM and the TGI [21] was 6.81 µM. It also gave a GI50 [22] of 0.292 µM, a TGI [22] of 14 µM and a GI50 [23] of 1.19 µM. The TGI [23] was 4.59 µM, the GI50 [24] was 1.76 µM and the TGI [24] was 43.1 µM. It also gave a GI50 [25] of 0.147 µM, a TGI [25] of 2.53 µM and a GI50 [26] of 0.211 µM. The TGI [26] was 7.33 µM, the GI50 [27] was 4.81 µM and the TGI [27] was over 100 µM. It also gave a GI50 [28] of 0.916 µM, a TGI [28] of over 100 µM and a GI50 [29] of 0.396 µM. For the same compound, the TGI [29] was 7.23 µM, the GI50 [30] was 1.16 µM and the TGI [30] was over 37.7 µM. For the same compound, the GI50 [31] was 4.1 µM, the TGI [31] was 26.8 µM and the GI50 [32] was 0.803 µM. The TGI [32] was 13.6 µM, the GI50 [33] was 1.89 µM and the TGI [33] was over 100 µM. It also gave a GI50 [34] of 2.47 µM, a TGI [34] of 18.7 µM and a GI50 [35] of 0.323 µM. The TGI [35] was 1.98 µM, the GI50 [36] was 0.936 µM and the TGI [36] was 12.3 µM. For the same compound, the GI50 [37] was 2.11 µM, the TGI [37] was over 65.5 µM and the GI50 [38] was 1.44 µM. The TGI [38] was 16.7 µM, the GI50 [39] was 0.478 µM and the TGI [39] was 14.1 µM. For the same compound, the GI50 [40] was 0.0456 µM, the TGI [40] was 1.74 µM and the GI50 [41] was 0.554 µM. It also gave a TGI [41] of 13.7 µM, a GI50 [42] of 2.76 µM and a TGI [42] of over 56.2 µM. The GI50 [43] was 0.486 µM, the TGI [43] was 2.08 µM and the GI50 [44] was 0.812 µM. It also gave a TGI [44] of 5.1 µM, a GI50 [45] of 0.56 µM and a TGI [45] of 28.4 µM. The GI50 [46] was 0.894 µM, the TGI [46] was 66.9 µM and the GI50 [47] was 1.17 µM. The TGI [47] was 17 µM, the GI50 [48] was 0.25 µM and the TGI [48] was 1.64 µM. The GI50 [49] was 0.434 µM, the TGI [49] was 16.6 µM and the GI50 [50] was 0.645 µM. The TGI [50] was 16.9 µM, the GI50 [51] was 0.461 µM and the TGI [51] was 8.79 µM. It also gave a GI50 [52] of 2.58 µM, a TGI [52] of 17.6 µM and a GI50 [53] of 0.118 µM. The TGI [53] was 0.596 µM, the GI50 [54] was 0.24 µM and the TGI [54] was 7.78 µM. For the same compound, the GI50 [55] was 1.15 µM, the TGI [55] was 17.7 µM and the GI50 [56] was 2.15 µM. The TGI [56] was 25.5 µM, the GI50 [57] was 3.05 µM and the TGI [57] was 18.6 µM. The GI50 [58] was 0.606 µM and the TGI [58] was 16.6 µM.
